Here are results for four molecules from US8673934B2, “Anti-infective agents and/or immunomodulators used for preventive therapy following an acute cerebrovascular accident” (priority 2002, dated 2014).

Test [1] concerns mouse model of cerebral ischemia (MCAO); stroke-induced immunodepression and bacterial infection. Kind of test: Immunomodulating therapy in mouse model of cerebral ischemia (MCAO): lymphopenia, lymphocyte/monocyte function, infections, survival. It counts as in vivo. As to the method:
According to the mouse model of cerebral ischemia, mice were operated according to the MCAO. In this operation, the A. cerebri media is occluded for about 60 minutes, leading to a cerebral infarction typical for this model. As a control, we use the so-called Sham-operation, in which the animals are also MCAO-operated, but in which the A. cerebri media is only occluded for about 1 minute. For the rest, the two paradigms are identical. Thus, the perioperative stress can be doubtlessly excluded as a systemic mistake for the following results.
This severe lymphopenia persists at least for 14 days and also affects the spleen and the thymus (FIG. 6:d-g), which constitute essential organs of immunological maturation. Besides the mere numeric decrease, there also occurs a functional impairment with a disturbance of the cytokine secretion capacity after stimulation (FIG. 6: h and j). Besides the disturbance of monocyte function, which manifests as a disturbance of TNF-α secretion for 2 days after LPS-stimulation, one can also detect a lymphocyte alteration after ConA-stimulation; this alteration persisting for 14 days after the stroke and mainly causing a Th1- to Th2-shift (alteration of the IFN-γ/IL4 ratio), which means a loss of pro-inflammatory potential. […] B- and NK-cells only slightly decrease in the blood after the OP-stress. In the spleen and in the thymus, no major stress-induced alterations are detected and the functional parameters of the monocytes and lymphocytes remain at the control level. […] In contrast to this, no infection is found in the control animals (Sham-operated).
Furthermore, the blockade of the SNS by propranolol (30 mg/kg body weight) also prevents the disturbance of function of the remaining monocytes (TNF-α secretion) and of the lymphocytes (IFN-γ/IL-4 ratio) (FIG. 7). The SNS blockade can also prevent the development of infections in the lung (pneumonia) and in the blood (sepsis) (FIG. 7). The dose of propranolol (indicated as mg/kg body weight), which is required for the prevention or drastic reduction of the bacterial infections, also prevents the disturbed INF-γ secretion of the lymphocytes (FIG. 8). To this aim, the administration of propranolol has to be accomplished at a very early stage (immediately up to 12 hours) after the stroke. An application 24 hours after the stroke event has no effect (FIG. 8). An early (before the stroke) chemical sympathicolysis by 6-hydroxydopamin (6-OHDA) as well prevents the stroke-induced, disturbed INF-γ function of the lymphocytes and blocks the severe bacterial infections (FIG. 8).

Test [2] deals with mouse model of cerebral ischemia (MCAO); stroke-induced spontaneous bacterial infection (more than 95% Escherichia coli). Here is the method: According to the mouse model of cerebral ischemia, a generally accepted model of ischemic stroke, mice were operated according to the MCAO. In this operation, the A. cerebri media is occluded for about 60 minutes, leading to a cerebral infarction typical for this model. As a control, we use the so-called Sham-operation, in which the animals are also MCAO-operated, but in which the A. cerebri media is only occluded for about 1 minute. For the rest, the two paradigms are identical.

The mark [3] stands for this setting: early (before the stroke) chemical sympathicolysis, FIG. 8.
Setting [4] is: after experimental stroke in mice, FIG. 7.

`NCCc1cc(O)c(O)cc1O` [6-hydroxydopamin (6-OHDA), 6-hydroxydopamin]: in test [1] (setting [3]), the severe bacterial infections entry is on record as “blocks” and the “stroke-induced, disturbed INF-γ function of the lymphocytes” value is “prevents”.

Turning to `COc1c(N2C[C@@H]3CCCN[C@@H]3C2)c(F)cc2c(=O)c(C(=O)O)cn(C3CC3)c12` [moxifloxacin, 1-cyclopropyl-6-fluoro-1,4-dihydro-8-methoxy-7-[(4aS,7aS)-octahydro-6H-pyrrolo[3,4-b]-pyridin-6-yl]-4-oxoquinoline-3-carboxylic acid], in test [2] (early administration within the first 24 h), the neurological deficit result is “drastically reduced”. In addition, the “infections (pneumonia, sepsis)” value in test [2] (very early (0-12 h) and somewhat later (12-24 h after acute stroke) treatment scheme) was “prevented”. Besides, the fever/hyperthermia entry in test [2] (very early (0-12 h) and somewhat later (12-24 h after acute stroke) treatment scheme, FIG. 3) was “significantly reduced”. In addition, the “neurological deficit after stroke” value in test [2] (very early (0-12 h) and somewhat later (12-24 h after acute stroke) treatment scheme, FIG. 5) is “significantly reduced”.

As to `CC(C)NCC(O)COc1cccc2ccccc12` (centres unmarked) [propranolol], in test [1] (30 mg/kg body weight, FIG. 7), the “disturbance of function of the lymphocytes (IFN-γ/IL-4 ratio)” value is recorded as “prevents” and the “disturbance of function of the remaining monocytes (TNF-α secretion)” value is given as “prevents”. The survival after stroke result in test [1] (30 mg/kg body weight, FIG. 10) is recorded as “drastically improve”. In test [1] (30 mg/kg body weight, FIGS. 7 and 8), the infections entry is on record as “prevent”. The “development of infections in the lung (pneumonia) and in the blood (sepsis)” value in test [1] (SNS blockade, FIG. 7) is given as “prevent”. In addition, in test [1] (setting [4]), the “decrease of T- and NK-cells” value was “prevent”; the “degree of B-cell lymphopenia” value was “significantly reduce”. Further, the “effect on bacterial infections and INF-γ secretion of application 24 hours after the stroke event” value in test [1] (application 24 hours after the stroke, FIG. 8) was “no effect”. Further, the “disturbed INF-γ secretion of the lymphocytes” value in test [1] (dose required for prevention of bacterial infections, administration immediately up to 12 hours after the stroke, FIG. 8) is “prevents”.

B1: IFN-γ: pro-inflammatory cytokine, interferon (protein, UniProt P01579 24-161, looked up)
Interferon gamma: QDPYVKEAENLKKYFNAGHSDVADNGTLFLGILKNWKEESDRKIMQSQIVSFYFKLFKNFKDDQSIQKSVETIKEDMNVKFFNSNKKKRDDFEKLTNYSVTDLNVQRKAIHELIQVMAELSPAAKTGKRKRSQMLFRG
On to B1, for which the “germ number in the lung” value in test [1] (2 μg, FIG. 9) was “reduce”. The “germ number in the blood” value in test [1] (2 μg, even more pronounced than in the lung, FIG. 9) was “reduce”.
